Data as given in US9833497B2, “Human originated EGF domain proteins and use of the same” (CHENGDU SOURCEBIO LIMITED-LIABILITY COMPANY, priority 2013, dated 2017).

Key:
Format in all cases: cell-based
[1] = system: Proteus vulgaris; assay: MIC against Gram-negative bacteria: Proteus vulgaris; conditions: for MIC: P. vulgaris, 10 h cultivation at 37° C.
Summary of the method: (§1)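 First, colonies from LB agar were grown in LB at 37° C, 185 rpm, to McFarland turbidity 0.5, then centrifuged and resuspended in fresh LB. Next, wells received 5×10^5 CFU/mL bacteria plus two-fold serially diluted EGF domain protein (triplicate). Finally, plates were shaken at 37° C and the no-growth concentration taken as MIC.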

[2] = system: E. coli DH5α; assay: Antibacterial activity: MIC and growth curve against E. coli DH5α in 96-well plate; conditions: minimal inhibitory concentration against E. coli DH5α; 96-well plate, 5×10^5 CFU/mL, 37° C., judged after 8 h
Summary of the method: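 MIC taken as lowest protein level with no bacterial growth, tracked by A600 every 30 min during 37 °C, 175 rpm culture. Two-fold protein series 50-12.5 μg/mL final, triplicate wells, against 5×10^5 CFU/mL of LB-washed mid-log cells.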

[3] = system: Serratia marcescens; assay: MIC against Gram-negative bacteria: Serratia marcescens; conditions: for MIC: S. marcescens, 10 h cultivation at 37° C.
Summary of the method: as §1

[4] = system: Proteus mirabilis; assay: MIC against Gram-negative bacteria: Proteus mirabilis; conditions: for MIC: P. mirabilis, 10 h cultivation at 37° C.
Summary of the method: as §1

[5] = system: Klebsiella pneumonia; assay: MIC against Gram-negative bacteria: Klebsiella pneumonia; conditions: for MIC: K. pneumonia, 10 h cultivation at 37° C.
Summary of the method: as §1

[6] = system: Moraxella catarrhalis; assay: MIC against Gram-negative bacteria: Moraxella catarrhalis; conditions: for MIC: M. catarrhalis, 10 h cultivation at 37° C.
Summary of the method: as §1

[7] = system: Aeromonas hydrophila; assay: MIC against Gram-negative bacteria: Aeromonas hydrophila; conditions: for MIC: A. hydrophila, 10 h cultivation at 37° C.
Summary of the method: as §1

[8] = system: Pseudomonas aeruginosa; assay: MIC against Gram-negative bacteria: Pseudomonas aeruginosa; conditions: for MIC: P. aeruginosa, 10 h cultivation at 37° C.
Summary of the method: as §1

[9] = system: Enterobacter cloacae; assay: MIC against Gram-negative bacteria: Enterobacter cloacae; conditions: for MIC: E. cloacae, 10 h cultivation at 37° C.
Summary of the method: as §1

[10] = system: E. coli BL21; assay: MIC against Gram-negative bacteria: E. coli BL21; conditions: for MIC: 10 h cultivation at 37° C.
Summary of the method: as §1

[11] = system: Citrobacter diversus; assay: MIC against Gram-negative bacteria: Citrobacter diversus; conditions: for MIC: C. diversus, 10 h cultivation at 37° C.
Summary of the method: as §1

[12] = 96-well plate, 5×10^5 CFU/mL, 37° C., 10 h
[13] = Proteus vulgaris, 96-well plate, 5×10^5 CFU/mL, 37° C., 10 h
[14] = Serratia marcescens, 96-well plate, 5×10^5 CFU/mL, 37° C., 10 h
[15] = Proteus mirabilis, 96-well plate, 5×10^5 CFU/mL, 37° C., 10 h
[16] = Klebsiella pneumonia, 96-well plate, 5×10^5 CFU/mL, 37° C., 10 h
[17] = Moraxella catarrhalis, 96-well plate, 5×10^5 CFU/mL, 37° C., 10 h
[18] = Aeromonas hydrophila, 96-well plate, 5×10^5 CFU/mL, 37° C., 10 h
[19] = Pseudomonas aeruginosa, 96-well plate, 5×10^5 CFU/mL, 37° C., 10 h
[20] = Enterobacter cloacae, 96-well plate, 5×10^5 CFU/mL, 37° C., 10 h
[21] = E. coli BL21, 96-well plate, 5×10^5 CFU/mL, 37° C., 10 h
[22] = Citrobacter diversus, 96-well plate, 5×10^5 CFU/mL, 37° C., 10 h

“PRT456 (DIDECADSEACGEARCKNLPGSYSCLCDEGFAYSSQEKACR; listed as Homo sapiens)” was tested, and the “MIC against P. vulgaris” value [1, 12] was 12.5 µg/mL, the MIC [2] was 25 µg/mL and the “MIC against S. marcescens” value [3, 12] was 25 µg/mL. The “MIC against P. mirabilis” value [4, 12] was 50 µg/mL, the “MIC against K. pneumonia” value [5, 12] was 12.5 µg/mL and the “MIC against M. catarrhalis” value [6, 12] was 12.5 µg/mL. For the same substance, the “MIC against A. hydrophila” value [7, 12] was 12.5 µg/mL, the “MIC against P. aeruginosa” value [8, 12] was 50 µg/mL and the “MIC against E. cloacae” value [9, 12] was 12.5 µg/mL. The “MIC against E. coli BL21” value [10, 12] was 12.5 µg/mL and the “MIC against C. diversus” value [11, 12] was 50 µg/mL.

Substance “PRT927 (DIDDCSSTPCLNGAKCIDHPNGYECQCATGFTGVLCE; listed as Homo sapiens)” has an MIC [1] of 12.5 µg/mL, an MIC [2] of 25 µg/mL and an MIC [3] of 50 µg/mL. The MIC [4] was 25 µg/mL, the MIC [5] was 12.5 µg/mL and the MIC [6] was 50 µg/mL. The MIC [7] was 50 µg/mL, the MIC [8] was 25 µg/mL and the MIC [9] was 25 µg/mL. For the same substance, the MIC ([10]; E. coli BL21) was 50 µg/mL and the MIC [11] was 12.5 µg/mL.

Work on “PRT924 (DVDECAMANSNPCEHAGKCVNTDGAFHCECLKGYAGPRCE; listed as Homo sapiens)” yielded an MIC [1] of 12.5 µg/mL, an MIC [2] of 12.5 µg/mL and an MIC [3] of 50 µg/mL. It also gave an MIC [4] of 25 µg/mL, an MIC [5] of 12.5 µg/mL and an MIC [6] of 50 µg/mL. For the same substance, the MIC [7] was 50 µg/mL, the MIC [8] was 50 µg/mL and the MIC [9] was 25 µg/mL. It also gave an MIC ([10]; E. coli BL21) of 25 µg/mL and an MIC [11] of 12.5 µg/mL.

With “PRT88 (HRMDQQCPRGWWGSPTCGPCNCDVHKGFDPNCN; listed as Homo sapiens)” the “MIC (μg/mL) P. vulgaris” value [1, 13] was 25 µg/mL, the MIC [2] was 25 µg/mL and the “MIC (μg/mL) S. marcescens” value [3, 14] was 12.5 µg/mL. For the same substance, the “MIC (μg/mL) P. mirabilis” value [4, 15] was 50 µg/mL, the “MIC (μg/mL) K. pneumonia” value [5, 16] was 100 µg/mL and the “MIC (μg/mL) M. catarrhalis” value [6, 17] was 12.5 µg/mL. For the same substance, the “MIC (μg/mL) A. hydrophila” value [7, 18] was 12.5 µg/mL, the “MIC (μg/mL) P. aeruginosa” value [8, 19] was 50 µg/mL and the “MIC (μg/mL) E. cloacae” value [9, 20] was 12.5 µg/mL. For the same substance, the “MIC (μg/mL) E. coli BL21” value [10, 21] was 12.5 µg/mL and the “MIC (μg/mL) C. diversus” value [11, 22] was 12.5 µg/mL.

For “PRT1248 (SACYCSATSRCDPQTGACLCHAGWWGRSCN; listed as Homo sapiens)”, the “MIC against P. vulgaris” value [1, 13] was 12.5 µg/mL, the MIC [2] was 25 µg/mL and the “MIC against S. marcescens” value [3, 14] was 25 µg/mL. For the same substance, the “MIC against P. mirabilis” value [4, 15] was 25 µg/mL, the “MIC against K. pneumonia” value [5, 16] was 25 µg/mL and the “MIC against M. catarrhalis” value [6, 17] was 12.5 µg/mL. The “MIC against A. hydrophila” value [7, 18] was 12.5 µg/mL, the “MIC against P. aeruginosa” value [8, 19] was 25 µg/mL and the “MIC against E. cloacae” value [9, 20] was 12.5 µg/mL. The “MIC against E. coli BL21” value [10, 21] was 25 µg/mL and the “MIC against C. diversus” value [11, 22] was 25 µg/mL.
